Test results taken from PubChem BioAssay (NCI).
Values joined by “and” are separate entries in the source; they are usually repeats but may differ in a detail not shown here. Identical values can stand only once.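 Growth conditions: 96-well plates. Treatment: test compound, 48 hours, 5 concentrations. Analysis: linear interpolation between bracketing concentrations; unreached endpoints set to highest concentration. Abbreviation: GI50, concentration required for 50% inhibition of growth. At the TGI there is no net growth.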

Columns and labels:
Test in all cases: growth of human tumour cells (NCI), 48 h
BT-549 breast = tested on: BT-549 breast
HS 578T breast = tested on: HS 578T breast
KM12 colon = tested on: KM12 colon
LOX IMVI melanoma = tested on: LOX IMVI melanoma
OVCAR-5 ovarian = tested on: OVCAR-5 ovarian
SF-268 CNS = tested on: SF-268 CNS
SF-539 CNS = tested on: SF-539 CNS
SK-MEL-2 melanoma = tested on: SK-MEL-2 melanoma
UACC-257 melanoma = tested on: UACC-257 melanoma
UO-31 renal = tested on: UO-31 renal

| SMILES | GI50 (BT-549 breast) | TGI (BT-549 breast) | GI50 (HS 578T breast) | TGI (HS 578T breast) | GI50 (KM12 colon) | TGI (KM12 colon) | GI50 (LOX IMVI melanoma) | TGI (LOX IMVI melanoma) | GI50 (OVCAR-5 ovarian) | TGI (OVCAR-5 ovarian) | GI50 (SF-268 CNS) | TGI (SF-268 CNS) [µM] | GI50 (SF-539 CNS) | TGI (SF-539 CNS) | GI50 (SK-MEL-2 melanoma) [µM] | TGI (SK-MEL-2 melanoma) | GI50 (UACC-257 melanoma) | TGI (UACC-257 melanoma) | GI50 (UO-31 renal) | TGI (UO-31 renal) |
| --- | --- | --- | --- | --- | --- | --- | --- | --- | --- | --- | --- | --- | --- | --- | --- | --- | --- | --- | --- | --- |
| COc1ccc(N(CC(=O)NCCC[Te]c2ccccc2)C(=O)CNC(=O)OC(C)(C)C)cc1 | 1.68 µM | 4.86 µM | 2.77 µM | 7.31 µM | 3.33 µM | 11.4 µM | 2.33 µM | 5.76 µM | 3 µM | 7.48 µM | 2.7 µM | 7.56 | 2.14 µM | 4.84 µM | 2.99 | 6.77 µM | 8.49 µM | 23.9 µM | 2.38 µM | 9.04 µM |
| CCN(CC)CCCCCCNc1cc(OC)cc2cccnc12 | 17.4 µM | 33.6 µM | 12.3 µM | 42.3 µM | 3.15 µM | 10.5 µM | 1.74 µM | 3.31 µM | 6.74 µM | 22.7 µM | 1.72 µM | 3.83 | 1.84 µM | 3.53 µM | 17.6 | 32.6 µM | 20.2 µM | 36.8 µM | 11.5 µM | 29.5 µM |
| O=[N+]([O-])c1ccc(N2CCOCC2)c2c1no[n+]2[O-] | 1.64 µM | 6.25 µM | 1.15 µM | 4.17 µM | 1.14 µM | 2.48 µM | 0.675 µM | 2.13 µM | 3.28 µM | 13.4 µM | 0.939 µM | 3.03 | 1.07 µM | 2.27 µM | 2.06 | 5.11 µM | 2.76 µM | 10.7 µM | 1.42 µM | 5.07 µM |
| COc1cc2nc(-c3cc(F)ccc3O)nc(N[C@@H]3CNC[C@H]3C(C)(C)O)c2cc1OC | 1.64 µM | 3.09 µM | 1.72 µM | 5.74 µM | 1.73 µM | 3.18 µM | 1.46 µM | 2.87 µM | 1.5 µM | 3.67 µM | 1.32 µM | 2.75 | 1.55 µM | 3 µM | 1.59 | 3.12 µM | 1.69 µM | 3.15 µM | 1.56 µM | 3.21 µM |
| NS(=O)(=O)c1ccc(-c2cc3ccncc3cc2OCc2ccccc2)cc1 | 6.01 µM | > 25 µM | 7.04 µM | > 25 µM | > 20.2 µM | > 25 µM | > 22.6 µM | > 25 µM | > 25 µM | > 25 µM | > 20.1 µM | > 25 | 7.17 µM | > 25 µM | 14.6 | > 25 µM | > 25 µM | > 25 µM | 14.5 µM | > 25 µM |
| O=C1c2sccc2-c2cccc3cccc1c23 (tested in a mixture with another compound) | – | 25.7 µM | – | 6.72 µM | – | 28.6 µM | – | 18.2 µM | – | 25.5 µM | – | > 100 | – | 32.2 µM | – | > 100 µM | – | 38.9 µM | – | 78.3 µM |
| Cc1ccc(-c2nc([P+](c3ccccc3)(c3ccccc3)c3ccccc3)c(S(=O)(=O)c3ccc(C)cc3)o2)cc1 | 1.61 µM | 3.1 µM | 1.7 µM | 5.31 µM | 1.75 µM | 3.83 µM | 0.328 µM | 1.3 µM | 1.58 µM | 3.18 µM | 1.55 µM | 2.97 | 1.58 µM | 2.92 µM | 2.17 | 4.41 µM | 1.7 µM | 3.7 µM | 1.32 µM | 2.6 µM |
| c1ccc2c(c1)Nc1ccncc1S2 | 29.6 µM | > 100 µM | 11.4 µM | 48.4 µM | 14.2 µM | 42.5 µM | 23.8 µM | > 100 µM | 19 µM | > 100 µM | 24.5 µM | > 100 | 19.7 µM | 67.1 µM | 13.6 | 36.7 µM | 31.1 µM | > 100 µM | 12.7 µM | 74 µM |
| Cc1cc(N(CCCNc2ccnc3cc(Cl)ccc23)Cc2ccco2)nc(N2CCN(C)CC2)n1 | 2.07 µM | 6.05 µM | 2.43 µM | 7.85 µM | 3.73 µM | 16.7 µM | 1.69 µM | 3.53 µM | 6.08 µM | 21.8 µM | 2.9 µM | 15.7 | 1.68 µM | 3.23 µM | 1.95 | 4.21 µM | 1.97 µM | 3.8 µM | 2.02 µM | 5.33 µM |
| COC(=O)[C@H]1CCCN1C(=O)[C@H]1CCCN1C(=O)[C@@H](Cc1c[nH]c2ccccc12)NC(=S)Nc1cc(C(F)(F)F)cc(C(F)(F)F)c1 | 2.47 µM | 5.59 µM | 2.03 µM | 5.17 µM | 1.88 µM | 3.92 µM | 1.65 µM | 3.05 µM | 1.78 µM | 3.54 µM | 2 µM | 5.4 | 1.92 µM | 3.61 µM | 1.95 | 3.55 µM | 1.85 µM | 4.26 µM | 2.16 µM | 6.31 µM |
| O=C(O)CCC(=O)c1ccc2sc3ccccc3c2c1 | – | > 100 µM | – | > 100 µM | – | > 100 µM | – | > 100 µM | – | > 100 µM | – | > 100 | – | > 100 µM | – | > 100 µM | – | > 100 µM | – | > 100 µM |
| O=C1OC(C(O)CO)C(O)=C1O (stereo not given) | 2190 µM and 2510 µM | 4330 µM and > 5710 µM | 2990 µM and > 10000 µM | 7960 µM and > 10000 µM | 1790 µM and > 3990 µM | 3270 µM and > 5430 µM | 340 µM and 426 µM | 1000 µM and 1460 µM | 1790 µM and 1730 µM | 3400 µM and 3310 µM | 2120 µM and 1960 µM | 4020 | 1900 µM and 1390 µM | 3360 µM and 1830 µM | 2190 | 4940 µM and > 3780 µM | 1870 µM and > 3610 µM | 3730 µM and > 5150 µM | 1760 µM and 1380 µM | 3170 µM and 2720 µM |
| Oc1cccc2ccc(N/N=C/c3cc(CN4CCOCC4)c(O)c4ncccc34)nc12 | 0.0363 µM | 2.78 µM | 0.0479 µM | 17.2 µM | 0.0267 µM | 3.41 µM | 0.0426 µM | 1.41 µM | 0.135 µM | 15.4 µM | 0.0372 µM | 13.4 | 0.0352 µM | 1.64 µM | < 0.0181 | 0.26 µM | 0.0368 µM | 0.44 µM | 0.0124 µM | 1.24 µM |
